Experimental data: US20050119304A1, “Urea derivatives” (priority 2001, published 2005)
Where two headings read alike, the source gives them in different places.

What was measured:
human VR1 = biological target: T1, human VR1 (Homo sapiens, UniProt Q8NER1); assay: Capsaicin-induced Ca2+ influx in the human VR1-transfected CHO cell line (Assay 1); type: cell-based
T1 construct: The cloned hVR1 cDNA was constructed with pcDNA3 vector and transfected into a CHOluc9aeq cell line; expressed in transfected cells
Excerpt: [Measurement of Capsaicin-Induced Ca^2+ Influx in the Human VR1-Transfected CHO Cell Line] (Assay 1)
(1) Establishment of the Human VR1-CHOluc9aeq Cell Line
Human vanilloid receptor (hVR1) cDNA was cloned from libraries of axotomized dorsal root ganglia (WO2000/29577). The cloned hVR1 cDNA was constructed with pcDNA3 vector and transfected into a CHOluc9aeq cell line. The cell line contains aequorin and CRE-luciferase reporter genes as read-out signals. The transfectants were cloned by limiting dilution in selection medium (DMEM/F12. medium (Gibco BRL) supplemented with 10% FCS, 1.4 mM Sodium pyruvate, 20 mM HEPES, 0.15% Sodium bicarbonate, 100 U/ml penicillin, 100 μg/ml strept mycin, 2 mM glutamine, non-essential amino acids and 2 mg/ml G418). Ca^2+ influx was examined in the capsaicin-stimulated clones. A high responder clone was selected and used for further experiments in the project. The human VR1-CHOluc9aeq cells were maintained in the selection medium and passaged every 3-4 days at 1-2.5×10^5 cells/flask ([…]).
(2) Measurement of Ca^2+ Influx Using FDSS-3000
Human VR1-CHOluc9aeq cells were suspended in a culture medium which is the same as the selection medium except for G418 and seeded at a density of 1,000 cells per well into 384-well plates (black walled clear-base/Nalge Nunc International). Following the culture for 48 hrs the medium was changed to 2 μM Fluo-3 AM (Molecular Probes) and 0.02% Puronic F-127 in assay buffer (Hank's balanced salt solution (HBSS), 17 mM HEPES (pH7.4), 1 mM Probenecid, 0.1% BSA) and the cells were incubated for 60 min at 25° C. After washing twice with assay buffer the cells were incubated with a test compound or vehicle for 20 min at 25° C. Mobilization of cytoplasmic Ca^2+ was measured by FDSS-3000 (λex=488 nm, λem=540 nm/Hamamatsu Photonics) for 60 sec after the stimulation with 10 nM capsaicin. Integral R was calculated and compared with controls.
The data corresponds to the compounds as yielded by solid phase synthesis and thus to levels of purity of about 40 to 90%.

T1 sequence (Q8NER1 whole entry): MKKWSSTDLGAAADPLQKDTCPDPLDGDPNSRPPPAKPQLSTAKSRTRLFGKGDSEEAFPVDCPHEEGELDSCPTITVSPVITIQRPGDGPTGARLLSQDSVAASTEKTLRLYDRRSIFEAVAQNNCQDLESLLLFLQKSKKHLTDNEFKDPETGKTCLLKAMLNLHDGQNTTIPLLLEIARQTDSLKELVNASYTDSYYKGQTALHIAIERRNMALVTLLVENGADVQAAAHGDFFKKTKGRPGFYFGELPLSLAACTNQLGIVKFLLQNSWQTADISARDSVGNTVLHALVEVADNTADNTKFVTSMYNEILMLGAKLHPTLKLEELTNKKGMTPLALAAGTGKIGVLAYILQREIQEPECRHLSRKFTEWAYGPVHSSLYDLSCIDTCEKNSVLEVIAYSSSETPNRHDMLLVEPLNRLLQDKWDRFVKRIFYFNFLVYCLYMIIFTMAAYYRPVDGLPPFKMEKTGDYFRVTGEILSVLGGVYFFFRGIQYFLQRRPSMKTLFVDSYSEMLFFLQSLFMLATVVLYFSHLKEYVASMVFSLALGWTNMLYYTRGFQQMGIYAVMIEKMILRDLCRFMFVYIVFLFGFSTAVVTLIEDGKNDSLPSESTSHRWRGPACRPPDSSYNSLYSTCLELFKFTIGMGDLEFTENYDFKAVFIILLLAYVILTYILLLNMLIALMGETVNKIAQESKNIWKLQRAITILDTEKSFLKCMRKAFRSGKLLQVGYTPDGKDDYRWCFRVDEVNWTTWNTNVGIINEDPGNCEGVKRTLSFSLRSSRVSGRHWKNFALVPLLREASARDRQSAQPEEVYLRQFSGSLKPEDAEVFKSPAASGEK

SMILES | IC50 (human VR1; read-out: Activity grade) [nM] | melting point [°C] | IC50 (human VR1; read-out: hVR1 class) [nM]
O=C(Nc1ccc(Cl)c(C(F)(F)F)c1)Nc1ccc2ncsc2c1 [Example 1, N-(1,3-benzothiazol-6-yl)-N′-[4-chloro-3-(trifluoromethyl)phenyl]urea] | < 100 | 225 to 228 | –
O=C(Nc1cccc(-c2ccccc2)c1)Nc1cccc2[nH]ccc12 [Example 2, N-(1,1′-biphenyl-3-yl)-N′-(1H-indol-4-yl)urea] | < 100 | 213 to 215 | –
O=C(Nc1ccc(Cl)c(C(F)(F)F)c1)Nc1ccc2[nH]ncc2c1 [Example 3] | – | > 250 | < 100
O=C(Nc1ccc(Cl)c(C(F)(F)F)c1)Nc1cccc2[nH]nnc12 [Example 4] | – | 232 to 235 | 100 to 500
O=C(Nc1ccc(Cl)c(C(F)(F)F)c1)Nc1ccc2[nH]ccc2c1 [Example 5] | – | 234 to 235 | 100 to 500
O=C(Nc1ccc(Cl)c(C(F)(F)F)c1)Nc1ccc2cc[nH]c2c1 [Example 6] | – | 245 to 248 | 100 to 500
O=C(Nc1ccc(Cl)c(C(F)(F)F)c1)Nc1cccc2cc[nH]c12 [Example 7] | – | 229 to 233 | < 100
O=C(Nc1ccc(Cl)c(C(F)(F)F)c1)Nc1cccc2[nH]ccc12 [Example 8] | – | 230 to 233 | < 100
O=C(Nc1ccc(Cl)c(C(F)(F)F)c1)Nc1cccc2[nH]c(C(F)(F)F)nc12 [Example 9] | – | 165 to 169 | < 100
O=C(Nc1ccc(Cl)c(C(F)(F)F)c1)Nc1ccc2[nH]nnc2c1 [Example 10] | – | > 250 | 100 to 500
O=C(NCc1ccc(Br)cc1)Nc1cccc2cc[nH]c12 [Example 11] | – | 205 to 208 | < 100
O=C(Nc1ccc(Oc2ccccc2)cc1)Nc1cccc2cc[nH]c12 [Example 12] | – | 216 to 218 | 100 to 500
O=C(Nc1ccc(Cl)c(C(F)(F)F)c1)Nc1ccc2c(c1)S(=O)(=O)C=C2 [Example 13] | – | – | < 100
CSc1nc2ccc(NC(=O)Nc3ccc(Cl)c(C(F)(F)F)c3)cc2s1 [Example 14] | – | 236 to 238 | 100 to 500
Cc1nc2ccc(NC(=O)Nc3ccc(Cl)c(C(F)(F)F)c3)cc2s1 [Example 15] | – | 234 to 235 | 100 to 500
Cc1nc2cc(NC(=O)Nc3ccc(Cl)c(C(F)(F)F)c3)ccc2s1 [Example 16] | – | 152 to 155 | < 100
O=C(Nc1ccc2c(c1)C(=O)OC2)Nc1ccc(Cl)c(C(F)(F)F)c1 [Example 17] | – | > 250 | 100 to 500
O=C(Nc1ccc(Cl)c(C(F)(F)F)c1)Nc1ccc2[nH]c(=S)sc2c1 [Example 18] | – | > 250 | 500 to 1000
O=C(Cc1ccc(Cl)c(C(F)(F)F)c1)Nc1ccc2cn[nH]c2c1 [Example 19] | – | > 250 | 500 to 1000
Cc1cccc(NC(=O)Nc2ccc3sc(C)nc3c2)c1 [Example 20] | – | 200 to 202 | < 100

SMILES | IC50 (human VR1; read-out: Activity grade) [nM] | melting point [°C] | IC50 (human VR1; read-out: hVR1 class) [nM]
CSc1cccc(NC(=O)Nc2ccc3sc(C)nc3c2)c1 [Example 21] | – | 225 to 227 | 100 to 500
Cc1nc2cc(NC(=O)Nc3ccc(F)cc3)ccc2s1 [Example 22] | – | 241 to 242 | < 100
Cc1nc2cc(NC(=O)Nc3cccc(C(F)(F)F)c3)ccc2s1 [Example 23] | – | 229 to 231 | < 100
COc1cccc(NC(=O)Nc2ccc3sc(C)nc3c2)c1 [Example 24] | – | 199 to 201 | 100 to 500
Cc1nc2cc(NC(=O)Nc3ccc(Oc4ccccc4)cc3)ccc2s1 [Example 25] | – | 228 to 229 | < 100
Cc1nc2cc(NC(=O)Nc3ccc(Br)cc3)ccc2s1 [Example 26] | – | > 250 | < 100
Cc1nc2cc(NC(=O)Nc3ccc4ccccc4c3)ccc2s1 [Example 27] | – | > 250 | < 100
COc1ccc(NC(=O)Nc2ccc3sc(C)nc3c2)cc1 [Example 28] | – | 215 to 217 | 100 to 500
Cc1nc2cc(NC(=O)Nc3ccc(Cl)c(Cl)c3)ccc2s1 [Example 29] | – | – | < 100
Cc1nc2cc(NC(=O)Nc3ccc(F)cc3F)ccc2s1 [Example 30] | – | 243 to 244 | < 100
Cc1nc2cc(NC(=O)Nc3ccc(C)c(Cl)c3)ccc2s1 [Example 31] | – | 230 to 232 | < 100
Cc1nc2cc(NC(=O)Nc3cc(C(F)(F)F)ccc3Cl)ccc2s1 [Example 32] | – | 240 to 241 | < 100
Cc1cccc(NC(=O)Nc2cccc3[nH]ccc23)c1 [Example 33] | – | 237 to 239 | 100 to 500
CSc1cccc(NC(=O)Nc2cccc3[nH]ccc23)c1 [Example 34] | – | 198 to 201 | 100 to 500
O=C(Nc1ccc(F)cc1)Nc1cccc2[nH]ccc12 [Example 35] | – | 239 to 241 | 100 to 500
COc1cccc(NC(=O)Nc2cccc3[nH]ccc23)c1 [Example 36] | – | 219 to 221 | 100 to 500
O=C(Nc1ccc(Oc2ccccc2)cc1)Nc1cccc2[nH]ccc12 [Example 37] | – | 212 to 214 | 100 to 500
Cc1cccc(NC(=O)Nc2ccc3c(c2)S(=O)(=O)C=C3)c1 [Example 38] | – | 219 to 222 | 500 to 1000
Cc1nc2cc(NC(=O)Nc3ccc(C(C)C)cc3)ccc2s1 [Example 39] | – | 208 to 210 | < 100

The remaining lines, values ahead:

IC50 (human VR1; read-out: Activity grade) [nM] | melting point [°C] | IC50 (human VR1; read-out: hVR1 class) [nM] | SMILES
– | > 250 | < 100 | Cc1nc2cc(NC(=O)Nc3cccc4ccccc34)ccc2s1 [Example 40]
– | 211 to 213 | < 100 | O=C(Nc1cccc(C(F)(F)F)c1)Nc1cccc2[nH]ccc12 [Example 41]
– | 212 to 213 | 100 to 500 | CSc1cccc(NC(=O)Nc2ccc3c(c2)S(=O)(=O)C=C3)c1 [Example 42]
– | 242 to 243 | 500 to 1000 | O=C(Nc1ccc(F)cc1)Nc1ccc2c(c1)S(=O)(=O)C=C2 [Example 43]
– | > 250 | – | O=C(Nc1cccc(C(F)(F)F)c1)Nc1ccc2c(c1)S(=O)(=O)C=C2 [Example 44]
– | 206 to 208 | 500 to 1000 | COc1cccc(NC(=O)Nc2ccc3c(c2)S(=O)(=O)C=C3)c1 [Example 45]
– | 204 to 206 | 100 to 500 | O=C(Nc1cccc(-c2ccccc2)c1)Nc1ccc2[nH]ccc2c1 [Example 46]
– | – | 100 to 500 | Cc1nc2cc(NC(=O)Nc3cccc(-c4ccc(Cl)cc4)c3)ccc2s1 [Example 47]
– | 162 to 166 | 500 to 1000 | Cc1nc2cc(NC(=O)Nc3ccc(Cl)c(C(F)(F)F)c3)ccc2[nH]1 [Example 48]
– | 243 to 245 | 500 to 1000 | Cc1nc2cc(NC(=O)Nc3ccc(Oc4ccccc4)cc3)ccc2[nH]1 [Example 49]
– | > 250 | 500 to 1000 | Cc1nc2cc(NC(=O)Nc3ccc(C(C)C)cc3)ccc2[nH]1 [Example 50]
– | 200 to 204 | 500 to 1000 | Cc1nc2cc(NC(=O)Nc3ccc(C)c(Cl)c3)ccc2[nH]1 [Example 51]
– | > 250 | 500 to 1000 | Cc1nc2cc(NC(=O)Nc3ccc(Br)cc3)ccc2[nH]1 [Example 52]
– | 189 to 191 | < 100 | Cc1nc2c(NC(=O)Nc3ccc(Cl)c(C(F)(F)F)c3)cccc2[nH]1 [Example 53]
– | 223 to 225 | < 100 | Cc1nc2c(NC(=O)Nc3ccc(Oc4ccccc4)cc3)cccc2[nH]1 [Example 54]
– | 216 to 218 | 100 to 500 | Cc1nc2c(NC(=O)Nc3ccc(C(C)C)cc3)cccc2[nH]1 [Example 55]
– | 216 to 219 | 100 to 500 | Cc1nc2cc(NC(=O)Nc3cccc(-c4ccccc4)c3)ccc2s1 [Example 56]
– | – | 500 to 1000 | Cc1cccc(NC(=O)Nc2ccc3[nH]ncc3c2)c1 [Example 103]
– | – | 500 to 1000 | O=C(Nc1ccc(Cl)c(C(F)(F)F)c1)Nc1ccc2[nH]c(C(F)(F)F)nc2c1 [Example 104]
– | – | 500 to 1000 | O=C(NCc1ccc(Br)cc1)Nc1cccc2[nH]c(C(F)(F)F)nc12 [Example 105]
– | – | 100 to 500 | O=C(Nc1ccc(Oc2ccccc2)cc1)Nc1cccc2[nH]c(C(F)(F)F)nc12 [Example 106]
